The text below walks through data of ChEMBL document CHEMBL1201862, “PubChem BioAssay data set” (2004).

Test systems include ACHN; CAKI-1; CCRF-CEM; COLO 205; DU-145; EKVX; HCT-116; HCT-15; HT-29; IGROV-1; M14; MCF7; NCI-H23; NCI/ADR-RES; OVCAR-4; UACC-257; MOLT-4; Malme-3M; SNB-75; RPMI-8226.
Holding throughout (experiment): NCI-60 cell line screen, 48 h

Structures are written as SMILES.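 These data come from cells grown in 96-well plates and exposed to compound for 48 hours at five concentrations. GI50: concentration for 50% inhibition of growth.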 The source made the active and inactive calls. No stated cut-off is given here; in the data, active = GI50 up to about 1.1 µM and inactive = higher. Bounds are passed on as bounds.

Turning to `Nc1ncnc2c1cnn2Cc1cn(COCC(O)CO)nn1` (centres undefined), the GI50 with ACHN, in the assay on CAKI-1, in the assay with CCRF-CEM, with COLO 205, with DU-145 and in the assay with EKVX was > 100 µM (inactive) throughout. For the same compound, the GI50 was > 100 µM (inactive) in the assay on HCT-116; > 100 µM with HCT-15; > 100 µM (inactive) in the assay on HT-29; > 100 µM (inactive) with IGROV-1; > 100 µM (inactive) in the assay with M14; > 100 µM (inactive) in the assay on MCF7. Besides, the GI50 in the assay on NCI-H23, in the assay with NCI/ADR-RES, with OVCAR-4 and in the assay with UACC-257 was > 100 µM (inactive) in each case.

In the case of `CCOC(=O)c1cc(-c2cc(OC)c(OC)c([N+](=O)[O-])c2)c([N+](=O)[O-])n1C`, the GI50 is 9.04 µM (inactive) in the assay on ACHN; 3.24 µM (inactive) with CCRF-CEM; > 10 µM (inactive) in the assay with EKVX; 5.33 µM (inactive) in the assay with HCT-116; 4.58 µM with HCT-15; 3.18 µM (inactive) with HT-29. Also, the GI50 in the assay with IGROV-1 was 5.9 µM (inactive); in the assay on M14 it was 8.57 µM (inactive); with MOLT-4, 3.5 µM (inactive); in the assay with Malme-3M it was 8.02 µM (inactive); in the assay with NCI-H23 it was 6.37 µM (inactive); in the assay on NCI/ADR-RES, 3.94 µM (inactive). Moreover, the GI50 was > 10 µM (inactive) in the assay on OVCAR-4, > 10 µM (inactive) in the assay on SNB-75 and 3.02 µM (inactive) in the assay with UACC-257.

For `COC(=O)C1=C(C)C(=O)[C@]23C(CCCC[C@H]12)C(=O)[C@H](C(=O)OC)C3C` (some centres undefined), the GI50 in the assay on ACHN, in the assay on CAKI-1, with CCRF-CEM, in the assay on COLO 205, in the assay on DU-145 and with EKVX was > 100 µM (inactive) throughout. In addition, the GI50 in the assay on HCT-116 is > 100 µM (inactive); in the assay on HCT-15, > 100 µM; in the assay on HT-29, > 100 µM (inactive); with IGROV-1, > 100 µM (inactive); in the assay on M14 it was > 100 µM (inactive); with MCF7 it was > 100 µM (inactive). The GI50 with MOLT-4, with Malme-3M, in the assay on NCI-H23, in the assay on NCI/ADR-RES, with OVCAR-4 and with UACC-257 was > 100 µM (inactive) throughout.

On to `CCOC(=O)c1nnsc1NC(=O)Nc1ccc(Cl)cc1`, for which the GI50 in the assay with ACHN was > 100 µM (inactive); with CCRF-CEM, > 100 µM (inactive); in the assay with COLO 205, 67.3 µM (inactive); in the assay on DU-145, 56.5 µM (inactive); in the assay with EKVX it was 42 µM (inactive); in the assay on HCT-116, 25.4 µM (inactive). In addition, the GI50 is 61.9 µM in the assay with HCT-15; 54.3 µM (inactive) in the assay with HT-29; 31 µM (inactive) in the assay on IGROV-1; 77.1 µM (inactive) in the assay on M14; > 100 µM (inactive) in the assay on MOLT-4; 75.5 µM (inactive) with Malme-3M. Further, the GI50 in the assay with NCI-H23 was 32.8 µM (inactive); in the assay on NCI/ADR-RES, 25.1 µM (inactive); in the assay with OVCAR-4, 21.1 µM (inactive); in the assay with RPMI-8226, 44.5 µM (inactive); in the assay with SNB-75, 21.1 µM (inactive); in the assay on UACC-257, > 100 µM (inactive).

Consider `CCOc1ccccc1NC(=O)C(=O)CC(=O)c1c(C)[n+]([O-])c2ccccc2[n+]1[O-]`, for which the GI50 with ACHN was > 100 µM (inactive); in the assay on CAKI-1 it was > 100 µM (inactive); with CCRF-CEM it was 52.8 µM (inactive); in the assay on COLO 205 it was 35.2 µM (inactive); with EKVX it was > 100 µM (inactive); in the assay with HCT-116 it was > 100 µM (inactive). Further, the GI50 in the assay with HCT-15 is 67.1 µM; with HT-29, > 100 µM (inactive); in the assay with IGROV-1, > 100 µM (inactive); with M14, > 100 µM (inactive); in the assay with MOLT-4, > 100 µM (inactive); in the assay with Malme-3M it was > 100 µM (inactive). The GI50 with NCI-H23 was 65 µM (inactive); in the assay on OVCAR-4 it was > 100 µM (inactive); in the assay with RPMI-8226 it was > 100 µM (inactive); in the assay with SNB-75 it was > 100 µM (inactive); in the assay on UACC-257 it was > 100 µM (inactive).

On to `O=C(Nc1ccc(Cl)c(Cl)c1)C1C(=O)N(c2ccc(Cl)c(Cl)c2)C(=O)/C1=N\O` (centres undefined), for which the GI50 with ACHN was > 100 µM (inactive); in the assay on CAKI-1, > 100 µM (inactive); in the assay with CCRF-CEM it was 42.1 µM (inactive); with COLO 205 it was 19.3 µM (inactive); in the assay with EKVX, 39.6 µM (inactive); in the assay on HCT-116, 32.6 µM (inactive). Also, the GI50 in the assay with HCT-15 is > 100 µM; in the assay with HT-29, 39.4 µM (inactive); in the assay with IGROV-1, > 100 µM (inactive); in the assay with M14 it was 22.9 µM (inactive); with MOLT-4 it was > 100 µM (inactive); in the assay on Malme-3M, > 100 µM (inactive). For the same compound, the GI50 is > 100 µM (inactive) with NCI-H23; 70.1 µM (inactive) with OVCAR-4; > 100 µM (inactive) in the assay with RPMI-8226; > 100 µM (inactive) in the assay on SNB-75; 51.2 µM (inactive) in the assay with UACC-257.

`COc1ccc2c(c1)OCC1Cc3cc4c(cc3OC21)OCO4` (centres undefined): the GI50 in the assay on ACHN was 97.3 µM (inactive); with CAKI-1, 47 µM (inactive); with CCRF-CEM, 51.1 µM (inactive); in the assay on COLO 205, 35.9 µM (inactive); in the assay on DU-145, 56.4 µM (inactive); with EKVX, 41.1 µM (inactive). The GI50 with HCT-116 was 31 µM (inactive); in the assay on HCT-15 it was 30.4 µM; in the assay with HT-29 it was 35.1 µM (inactive); in the assay with IGROV-1 it was 43 µM (inactive); in the assay with M14, 32.1 µM (inactive); with MCF7, 46.8 µM (inactive). For the same compound, the GI50 in the assay on MOLT-4 was 36.8 µM (inactive); in the assay on Malme-3M, 54.1 µM (inactive); with NCI-H23, > 100 µM (inactive); in the assay with NCI/ADR-RES, 26.2 µM (inactive); with RPMI-8226, 71.4 µM (inactive); with UACC-257, 30.2 µM (inactive).

On to `CCOC(=O)CCC(NC(=O)c1ccc(/N=C/c2nc3cc(C(F)(F)F)ccc3nc2-c2ccccc2)cc1)C(=O)OCC` (centres undefined), for which the GI50 was 11.1 µM (inactive) in the assay on ACHN; 32.4 µM (inactive) with CAKI-1; > 50 µM (inactive) in the assay on CCRF-CEM; 25.5 µM (inactive) in the assay with COLO 205; 34.1 µM (inactive) in the assay on DU-145; 28.9 µM (inactive) with EKVX. Moreover, the GI50 in the assay with HCT-116 was 6.56 µM (inactive); in the assay on HCT-15 it was > 50 µM; with HT-29, > 50 µM (inactive); in the assay with IGROV-1 it was 15.3 µM (inactive); with M14, 23.9 µM (inactive); with MOLT-4, > 50 µM (inactive). Also, the GI50 is 6.4 µM (inactive) in the assay with Malme-3M; 7.82 µM (inactive) in the assay on NCI-H23; 11.5 µM (inactive) in the assay on OVCAR-4; > 50 µM (inactive) in the assay on RPMI-8226; 5.04 µM (inactive) with SNB-75; > 50 µM (inactive) in the assay with UACC-257.

Take `NC(=O)c1c2c(cc3c(=O)c4ccccc4[nH]c13)CCCC2`: the GI50 in the assay with ACHN was > 100 µM (inactive); with CAKI-1, > 100 µM (inactive); in the assay on CCRF-CEM, > 65 µM (inactive); in the assay with COLO 205 it was > 100 µM (inactive); in the assay on EKVX, > 100 µM (inactive); in the assay with HCT-116, > 100 µM (inactive). Moreover, the GI50 in the assay with HCT-15 is > 100 µM; with HT-29 it was > 100 µM (inactive); in the assay on IGROV-1, > 100 µM (inactive); in the assay with M14, > 100 µM (inactive); in the assay on MOLT-4, > 61.2 µM (inactive); in the assay with Malme-3M it was > 73.6 µM (inactive). Moreover, the GI50 is > 93.3 µM (inactive) in the assay on NCI-H23; > 100 µM (inactive) in the assay on OVCAR-4; > 46.8 µM (inactive) in the assay on RPMI-8226; 43.1 µM (inactive) in the assay on SNB-75; > 100 µM (inactive) in the assay with UACC-257.

As to `NC(=O)c1ccc(Cl)c([N+](=O)[O-])c1`, the GI50 in the assay on ACHN, in the assay with CAKI-1, with CCRF-CEM, with COLO 205, in the assay on EKVX and in the assay with HCT-116 was > 100 µM (inactive) in each case. Further, the GI50 is > 100 µM in the assay with HCT-15; > 100 µM (inactive) in the assay on HT-29; > 100 µM (inactive) in the assay on IGROV-1; > 100 µM (inactive) in the assay with M14; > 100 µM (inactive) with MOLT-4; > 100 µM (inactive) in the assay with Malme-3M. Also, the GI50 with NCI-H23 was > 100 µM (inactive); in the assay on OVCAR-4, > 100 µM (inactive); in the assay with RPMI-8226 it was > 10 µM (inactive); with SNB-75 it was > 100 µM (inactive); in the assay with UACC-257, > 100 µM (inactive).

Take `Cc1cc(OCc2nnc3n2N=C(c2cc(F)c(Cl)cc2Cl)/C(=C/c2ccc(-c4ccc(Cl)cc4)o2)S3)ccc1Cl`: the GI50 in the assay with ACHN was > 50 µM (inactive); with CAKI-1, 39.5 µM (inactive); with CCRF-CEM, > 50 µM (inactive); with COLO 205, 10.4 µM (inactive); in the assay with DU-145 it was > 50 µM (inactive); in the assay with EKVX, 16.3 µM (inactive). Besides, the GI50 in the assay with HCT-116 is 48.2 µM (inactive); with HCT-15, 34 µM; with HT-29, 21.3 µM (inactive); with IGROV-1 it was 12.1 µM (inactive); in the assay with M14 it was > 50 µM (inactive); in the assay on MCF7, 20.5 µM (inactive). In addition, the GI50 in the assay on MOLT-4 is > 50 µM (inactive); with Malme-3M, 3.9 µM (inactive); in the assay on NCI-H23 it was 26.7 µM (inactive); in the assay on NCI/ADR-RES, 12.1 µM (inactive); with RPMI-8226 it was 14.1 µM (inactive); in the assay with UACC-257, > 50 µM (inactive).
